Calls of active or inactive are those of the source. No rule for the calls is given here. Bounds are passed on as bounds.

The data set in a line: Cytotoxicity activity against human HepG2 cells assessed by CellTiter-Glo luminescent cell viability assay. The class given is toxicity, cell-based. The arrangement: assay stage confirmatory assay, source tissue liver. The conditions noted are these: HepG2 cells, read-out: IC50 relative. On the technique in general: Cellular ATP, detected with luciferase, serves as a proxy for viable cell number.
On to `COc1cc(/C=C/C(=O)CC(=O)/C=C/c2ccc(O)cc2)ccc1O`, for which the CC50 was 11.5 µM (active). For `CN(C)CCNC(=O)NC[C@H]1CC[C@@H]2[C@H](O1)c1cc(C(F)(F)F)ccc1N[C@H]2c1ccccc1` the value was 3.5 µM (active). `CCCCCCCCC(=O)N[C@H](CN1CCCC1)[C@H](O)c1ccc2c(c1)OCCO2`: the CC50 is 5.1 µM (active). For `Cn1nc(-c2ccc(C(F)(F)F)cc2)nc2c(=O)n(C)c(=O)nc1-2` the value was 1.1 µM (active); for `COc1ccc2[nH]c(C(=O)c3ccccc3)cc2c1`, 0.2 µM (inactive). The value for `COc1ccc([N+](=O)[O-])c(S(=O)(=O)c2ccc(Cl)cc2)n1` was 2.2 µM (active). The value for `C[n+]1ccc(/C=C/c2c[nH]c3ccccc23)cc1` was 1.2 µM (active); that for `O=C1Nc2ccccc2/C1=C1\Nc2ccccc2\C1=N/O` was 14.6 µM (inactive); that for `CCN(Cc1cc(Nc2nc(C)cn3c(-c4cn[nH]c4)cnc23)sn1)C(C)(C)CO` was 1.8 µM (active). `COc1cc(N2CCN(C)CC2)ccc1Nc1ncc2c(n1)N(C)c1ccccc1C(=O)N2`: the CC50 was 7.5 µM (active). For `CN1CCC(c2cc(-c3ccncc3)c(-c3ccc(F)cc3)[nH]2)CC1` the value was 9.2 µM (active); for `COc1cc2c(Nc3ccc(NC(=O)c4ccccc4)cc3)ncnc2cc1OCCCN1CCOCC1`, 3.2 µM (active); for `CC(C)NC(=O)[C@H]1CC[C@@H](n2/c(=N/C(=O)c3ccc(F)cc3)[nH]c3ccc(CN4CCC(C(C)(C)O)CC4)cc32)CC1`, 0.8 µM (active). Take `CC(=O)N1c2ccc(-c3ccc(C(=O)O)cc3)cc2[C@H](Nc2ccc(Cl)cc2)C[C@@H]1C`: the CC50 was 0.9 µM (active).

Take `CCNC(=O)Nc1ccc(-c2nc3c(c(N4CCOC[C@@H]4C)n2)CCN(c2ncccn2)C3)cc1`: the CC50 is 0.2 µM (active). The value for `NC(=O)c1cnc(NCCc2ccc(O)c(Cl)c2)nc1NCc1ccccc1` was 4.2 µM (active); that for `c1cc(-c2cnn3cc(-c4ccc(N5CCNCC5)cc4)cnc23)c2cccnc2c1` was 0.9 µM (active). The value for `COc1cc(C(=O)NC2CCN(C)CC2)ccc1Nc1ncc2c(n1)N(C1CCCC1)CC(F)(F)C(=O)N2C` was 2.9 µM (active); that for `O=C(NCc1ccc(S(=O)(=O)c2cc(F)cc(F)c2)cc1)c1ccc2nccn2c1` was < 0.1 µM (active); that for `CC(C)c1ccc(-c2cc(=O)c3ccccc3o2)cc1` was 11.1 µM (active). The value for `Cc1cccc(CC(=O)N2CCc3c2ccc(-c2cn(C)c4ncnc(N)c24)c3F)n1` was 6.7 µM (active); that for `c1cc(NC2CCNCC2)nc(-c2cnc3ccccn23)c1` was 4.5 µM (active). On to `NC1(Cc2ccc(Cl)cc2)CCN(c2ncnc3[nH]ccc23)CC1`, for which the CC50 is 6.7 µM (active). Consider `Nc1ccccc1NC(=O)CCCCCC(=O)Nc1ccccc1`, for which the CC50 is 11.7 µM (active). The value for `CCCCNc1ncc(C(=O)NCc2ccc(-n3ccnc3)cc2)c(N[C@H]2CC[C@H](O)CC2)n1` was 2.8 µM (active). For `CN(CC(=O)N(Cc1ccc(C2CCCCC2)cc1)c1ccc(C(=O)O)cc1)S(=O)(=O)c1c(F)c(F)c(F)c(F)c1F` the value was 3.4 µM (active); for `COc1cc(C(N)=O)ccc1NC(=O)[C@@H]1N[C@@H](CC(C)(C)C)[C@@]2(C(=O)Nc3cc(Cl)ccc32)[C@H]1c1cccc(Cl)c1F`, 5.3 µM (inactive). For `O=C(CCN1CCN(C(=O)OCc2cc(Cl)cc(Cl)c2)CC1)c1ccc2[nH]c(=O)oc2c1` the value was 20.6 µM (inactive); for `COc1ccccc1-c1cc(Nc2cccc(CS(N)(=O)=O)c2)ncn1`, 2.5 µM (active). On to `CCCCNc1ncc2c(-c3ccc(CN4CCN(C)CC4)cc3)cn([C@H]3CC[C@H](O)CC3)c2n1`, for which the CC50 is 1.3 µM (active). On to `O=C(Nc1cccc(C(F)(F)F)c1)Nc1cc(S(=O)(=O)NC2CC2)ccc1-c1ccsc1`, for which the CC50 was 10.1 µM (active). The value for `N#Cc1ccnc(Nc2cc(C3CCN(C4COC4)CC3)cc(N3CCC(F)(F)C3)n2)c1` was 1.9 µM (active).

For `CN(C)C/C=C/C(=O)Nc1cccc(C(=O)Nc2ccc(Nc3nccc(-c4cccnc4)n3)cc2)c1`, the CC50 was 1 µM (active). For `O=C1c2ccccc2C(=O)c2oc(-c3ccccc3)nc21` the value was 2.6 µM (active); for `COc1cc2c(cc1OC)CN(CCc1ccc(NC(=O)c3cc(OC)c(OC)cc3NC(=O)c3cnc4ccccc4c3)cc1)CC2`, 27.3 µM (inactive). For `CCS(=O)(=O)c1ccc(CC(=O)Nc2cc(Cl)c(-c3ccccc3OC(F)(F)F)c(Cl)c2)cc1` the value was 12.7 µM (inactive); for `CCNC(=O)c1[nH]nc(-c2cc(Cl)c(O)cc2O)c1-c1ccc(OC)cc1`, 1 µM (active); for `COc1cccc2c(NCc3ccccc3)nc(-n3c(N)nc4ccccc43)nc12`, 9.6 µM (active).

As to `N#Cc1cc2cc(CN3CCC(Nc4ncnc5sc(CC(F)(F)F)cc45)CC3)ccc2[nH]1`, the CC50 was 2.2 µM (active). For `Nc1ncc(-c2ccnc(Nc3ccncc3)n2)c(CC2CC2)n1` the value was 7 µM (active); for `Cc1c(-c2ccc(N3CCc4cccc(C(=O)Nc5nc6ccccc6s5)c4C3)nc2C(=O)O)cnn1CC12CC3CC(CC(C3)C1)C2`, 1 µM (active). As for `CC(C)c1c2cc(-c3ccnc(N[C@H]4CC[C@H](NC5CCOCC5)CC4)n3)ccc2nn1C`, the CC50 was 0.1 µM (active). The value for `CN(C)CCCOc1ccc(-c2ccc3ncc4c(c3c2)n(C2CCOCC2)c(=O)n4C)cn1` was 7.4 µM (active); that for `CCOc1cc(N2CCC(O)CC2)ccc1Nc1ncc2c(n1)N(C1CCCC1)CCC(=O)N2C` was 4.3 µM (active). The value for `C=CC(=O)Nc1ccc(CN2C(=O)N(c3cc(OC)cc(OC)c3)Cc3cnc(Nc4ccc(N5CCN(C)CC5)cc4)nc32)cc1` was 3.7 µM (active); that for `Nc1nc(N)c2c(OCC3CCN(Cc4c(Cl)cccc4Cl)CC3)cccc2n1` was 4 µM (active). The value for `CN1CCN(Cc2ccc(NC(=O)c3n[nH]cc3Nc3ncnc4[nH]ccc34)cc2)CC1` was 1.1 µM (active). For `COc1nc(OCc2cccc(-c3ccccc3)c2C)ccc1CNCCNC(C)=O`, the CC50 was 4 µM (active). The value for `Cc1cc(N2C[C@@H](C)N[C@@H](C)C2)ncc1-c1ccc(-c2nc3c(ccn3C)c(=O)[nH]2)cc1` was 1.8 µM (active); that for `CN(C)C/C=C/C(=O)Nc1ccc(C(=O)N2CCC[C@@H](Nc3ncc(Cl)c(-c4c[nH]c5ccccc45)n3)C2)cc1` was 0.1 µM (active); that for `CC(C)(C)c1cc(NC(=O)Nc2ccc(Oc3ccnc4[nH]c(=O)cnc34)cc2F)n(-c2ccccc2)n1` was 0.4 µM (active). Turning to `N#Cc1ccc(O[C@@H]2c3ccccc3C[C@H]2N2CCC[C@@H](N)C2)c(Cl)c1`, the CC50 is 4.9 µM (active). For `Cc1sc2c(c1C)C(c1ccc(Cl)cc1)=N[C@@H](CC(=O)NCCCCCCCCNC(=O)COc1cccc3c1C(=O)N(C1CCC(=O)NC1=O)C3=O)c1nnc(C)n1-2` (some centres undefined) the value was < 0.1 µM (active); for `N[C@H]1CC[C@H](Nc2cc(-c3cccc(NCc4cccc(F)c4)n3)c(Cl)cn2)CC1`, 0.1 µM (active); for `COc1ccc(-c2c[nH]c3nccc(-c4ccsc4)c23)c(OC)c1`, 7.9 µM (active). Consider `COc1cc(N2CCN(C)CC2)ccc1Nc1ncc2c(n1)N(C1CCC1)C(=O)N(c1c(C)cccc1C)C2`, for which the CC50 was 3.3 µM (active). Take `CNc1nc(Nc2ccc(C(=O)N3CCOCC3)cc2OC)nc2[nH]cc(Cl)c12`: the CC50 was 5 µM (active).

Consider `COC(=O)[C@H](CC(C)C)NC(=O)c1ccc(NC[C@@H](N)CS)cc1-c1cccc2ccccc12`, for which the CC50 was 50 µM (inactive). Consider `CN(c1ccccc1CNc1nc(Nc2ccc3c(c2)CC(=O)N3)ncc1C(F)(F)F)S(C)(=O)=O`, for which the CC50 was 1 µM (active). For `N#Cc1cnc2c(Cl)cc(NCc3cn(CCN4CCCCCC4)nn3)cc2c1Nc1ccc(F)c(Cl)c1` the value was 11.6 µM (active). The value for `O=[N+]([O-])c1ccc(Sc2cccc[n+]2[O-])c2nonc12` was 0.6 µM (active); that for `COc1ccc2c(c1)CN(C)CC2c1ccc(Cl)c(Cl)c1` (centres undefined) was 12.6 µM (active); that for `CN1CCN([C@H]2CC[C@H](n3cc(-c4ccc(Oc5ccccc5)cc4)c4c(N)ncnc43)CC2)CC1` was 1.6 µM (active). For `CC(C)=CCC[C@]1(C)C=Cc2c(O)c3c(c(CC=C(C)C)c2O1)O[C@]12C(=C[C@@H]4C[C@H]1C(C)(C)O[C@@]2(C/C=C(/C)C(=O)O)C4=O)C3=O` the value was 0.7 µM (active).

Regarding `CC(=O)c1cnc2ccc(-c3cc(Cl)c(O)c(Cl)c3)nc2c1N[C@H]1CC[C@H](CN(C)C)CC1`, the CC50 was 0.1 µM (active). For `N#Cc1c(C2CCNCC2)cc(-c2c(O)cccc2OCC2CC2)nc1N` the value was 5.6 µM (active). For `C=CCNc1c(O)cc2c(O)c1C[C@@H](C)C[C@H](OC)[C@H](O)[C@@H](C)/C=C(/C)[C@H](OC(N)=O)[C@@H](OC)/C=C\C=C(\C)C(=O)N2` the value was 0.1 µM (active). For `COc1cc2nc(-c3cc(F)ccc3O)nc(N[C@@H]3CNC[C@H]3C(C)(C)O)c2cc1OC` the value was 1.6 µM (active); for `C[C@]12CC/C(=N\OCCN)C[C@@H]1C(=O)C[C@@H]1[C@@H]2CC[C@]2(C)C(=O)CC[C@@H]12`, 10.5 µM (active); for `CCCOc1cc(OCCCCN(C)C)cc(Oc2cc3c(cc2NS(=O)(=O)c2ccc(OC)c(OC)c2)n(C)c(=O)n3C)c1`, 7.8 µM (active). As to `Cc1cc(-c2cc(O)ccc2Cl)cc2nnc(Nc3ccc(OCCN4CCCC4)cc3)nc12`, the CC50 is 1.4 µM (active).

Regarding `CO[C@H]1/C=C\C=C(\C)C(=O)NC2=CC(=O)C(NCCN(C)C)=C(C[C@@H](C)C[C@H](OC)[C@H](O)[C@@H](C)/C=C(/C)[C@@H]1OC(N)=O)C2=O`, the CC50 is < 0.1 µM (active).

Regarding `Cc1nc2c(=O)n(C)c(=O)nc-2n(C)n1`, the CC50 is 0.7 µM (active). For `CN(C)Cc1ccc(-c2nc3cccc4c3n2CCNC4=O)cc1` the value was 10.9 µM (active).

(Values after ChEMBL document CHEMBL5303711, “ECBD screening data for assay EOS300108” (2023).)
